Test results reported in US11629139B2 (priority 2017, dated 2023).
In brackets after ≈: the same amount, converted by molar mass. Like-named read-outs stand apart in the source and are kept apart here.

Experiments:
[1] = physchem; settings: pH 7.4, aqueous buffer, kinetic from dmso stock
[2] = in vitro; settings: mouse, microsomes
[3] = tested on: vesicular stomatitis virus particles (VSV) pseudotyped with EboV Zaire GP; assay: microbe, parasite or virus in culture; format: cell-based
[4] = tested on: cell viability
[5] = tested on: vesicular stomatitis virus particles (VSV) pseudotyped with EboV Zaire GP; settings: cited from earlier work
[6] = tested on: VSV G; settings: cited from earlier work
[7] = tested on: Lassa fever virus (LFV) GP; settings: cited from earlier work
[8] = not given; remark: listed apart in the source
[9] = tested on: EBOV G-A82; assay: microbe, parasite or virus in culture; format: cell-based, Ebola virus; settings: Zaire ebolavirus, HeLa, read-out: EBOV G-A82 (Hela) EC50
[10] = tested on: EBOV Makona; assay: microbe, parasite or virus in culture; format: cell-based, Ebola virus; settings: Zaire ebolavirus, HeLa, read-out: EBOV Makona (Hela) EC50
[11] = in vitro; settings: mouse, plasma
[12] = in vivo; settings: mouse, po
[13] = mouse, in vivo
[14] = tested on: EBOV Kikwit; assay: microbe, parasite or virus in culture; format: cell-based, Ebola virus; settings: Zaire ebolavirus, HeLa, read-out: EBOV Kikwit(Hela) EC50
[15] = tested on: Ebola virus (Mayinga); assay: microbe, parasite or virus in culture; format: cell-based; settings: Zaire ebolavirus, HeLa, read-out: EBOV Maiynga) (Hela) EC50
[16] = pH 7.4
[17] = human, microsomes
[18] = plasma

For `[2H]C([2H])(c1cc(Cl)ccc1N)N1CCN(C(=O)CNC(=O)C2CC23CCC(F)(F)CC3)CC1` (stereo not drawn) [Compound 1413, N-(2-(4-((2-amino-5-chlorophenyl)methyl-d2)piperazin-1-yl)-2-oxoethyl)-6,6-difluorospiro[2.5]octane-1-carboxamide], the solubility kinetic [1] was > 100 µM, the “T1/2 (min)” value (mouse, microsomes, pH 7.4) was 13/215 min and the half-life ([2]; pH 7.4, Microsome T1/2) was 1.4 to 2 min. For the same compound, the half-life ([2]; pH 7.4, T1/2(min)) was 2 min, the half-life ([2]; pH 7.4, T1/2 + ritonavir (min)) was 215 min and the IC50 [3] was 130 nM. The IC50 ([3]; Vesicular stomatitis virus) was 68 nM.

In the case of `CS(=O)(=O)c1ccc(COc2ccc(Cl)cc2CN2CCN(C(=O)CNC(=O)C3CC34CCC(F)(F)CC4)CC2)cc1` (racemic) [(racemic)-1476], the “Concentration required to reduce cell viability by 50%” value [4] is reported as “exceeded 10 μM”.

For `O=C(CC12CC3CC(CC(C3)C1)C2)NCC(=O)N1CCN(Cc2ccccc2)CC1` [Compound 3.0], the “Infection of Vero cells by VSV pseudotyped with EboV Zaire GP” value [5] is given as “inhibits infection”, the “Infection of Vero cells by VSV particles with VSV G” value [6] is given as “not” and the “Infection of Vero cells by VSV pseudotyped with Lassa fever virus (LFV) GP” value [7] is given as “not”.

With `[2H]C([2H])(c1cc(Cl)ccc1NCc1ccc(S(C)(=O)=O)cc1)N1CCN(C(=O)CNC(=O)C2CC23CCC(F)(F)CC3)CC1` (racemic) [(racemic)-1503] the “Concentration required to reduce cell viability by 50%” value [4] was “exceeded 10 μM”.

In the case of `CS(=O)(=O)c1ccc(COc2ccc(Cl)cc2CN2CCN(C(=O)CNC(=O)CC3CCC(F)(F)CC3)CC2)cc1` [Compound 1458], the “Mouse plasma stability (% at 4 hours)” value [8] is reported as 30%, the “MLM, T½ (min) (ritonavir 3 μM)” value (mouse, microsomes, pH 7.4) is reported as >120 min and the IC50 ([3]; Vesicular stomatitis virus) is reported as 9 nM.

For `CS(=O)(=O)c1ccc(COc2ccc(Cl)cc2CN2CCN(C(=O)CNC(=O)C3CC34CCC(F)(F)CC4)CC2)cc1` (stereo not drawn) [Compound 1476], the EC50 [9] was < 80 nM, the EC50 [10] was 140 nM and the fraction unbound ([11]; m-plasma protein binding) was 0.013. For the same compound, the “m-μsome T1/2 (with 3 μM of Ritonavir)” value (mouse, microsomes, pH 7.4) was 170 min, the AUC [12] was 314 µM·h and the Cmax [12] was 23 µM. The half-life [12] was 366 min, the “C@12 hr” value [13] was 14 µM and the EC50 [14] was 210 nM. It also gave an EC50 [15] of 420 nM.

In the case of `CS(=O)(=O)c1ccc(CNc2ccc(Cl)cc2CN2CCN(C(=O)CNC(=O)C3CC34CCC(F)(F)CC4)CC2)cc1` (stereo not drawn) [Compound 1478], the EC50 [10] is reported as 17 nM, the fraction unbound ([11]; m-plasma protein binding) is reported as 0.001 and the “m-μsome T1/2 (with 3 μM of Ritonavir)” value (mouse, microsomes, pH 7.4) is reported as 128 min. It also gave an EC50 [14] of 9 nM and an EC50 [15] of 35 nM.

In the case of `Nc1ccc(Cl)cc1CN1CCN(C(=O)CNC(=O)C2CC23CCC(F)(F)CC3)CC1` (stereo not drawn) [Compound 1373, N-(2-(4-(2-Amino-5-chlorobenzyl)piperazin-1-yl)-2-oxoethyl)-6,6-difluorospiro[2.5]octane-1-carboxamide], the half-life ([2]; pH 7.4, T1/2(min)) is reported as 1.3 min and the IC50 ([3]; Vesicular stomatitis virus) is reported as 100 nM.

In the case of `O=C(CC12CC3(F)CC(F)(CC(F)(C3)C1)C2)NCC(=O)N1CCN(Cc2ccccc2OCc2ccc(Br)cc2)CC1` [Compound 1254], the half-life ([2]; pH 7.4, MLM T½ (min)) is reported as 1 min and the IC50 ([3]; Vesicular stomatitis virus) is reported as 200 nM.

In the case of `O=C(CC12CC3CC(CC(C3)C1)C2)NCC(=O)N1CCN(Cc2ccccc2OCc2ccc(-c3ncco3)cc2)CC1` [Compound 1803, 2-((3r,5r,7r)-Adamantan-1-yl)-N-(2-(4-(2-((4-(oxazol-2-yl)benzyl)oxy)benzyl)piperazin-1-yl)-2-oxoethyl)acetamide], the “Mouse plasma stability (% at 4 hours)” value [8] is reported as 37%, the solubility kinetic [1] is reported as 5 µM (≈ 2.91 µg/mL) and the fraction unbound ([11]; Mouse PPB (% bound)) is reported as 0.003. The half-life ([2]; pH 7.4, MLM T½ (min)) was 1 min and the IC50 ([3]; Vesicular stomatitis virus) was 270 nM.

For `[2H]C([2H])(c1cc(Cl)ccc1N)N1CCN(C(=O)CNC(=O)CC2CCC(F)(F)CC2)CC1` [Compound 1412, N-(2-(4-((2-amino-5-chlorophenyl)methyl-d2)piperazin-1-yl)-2-oxoethyl)-2-(4,4-difluorocyclohexyl)acetamide], the solubility kinetic [1] was > 100 µM, the “Effect of CYP3A4 inhibition on T1/2 (FIG. 9)” value (mouse, microsomes) was “improves” and the “T1/2 (min)” value (mouse, microsomes, pH 7.4) was 1.4/144 min. For the same compound, the “Increase of stability in mouse liver microsomes by ritonavir” value (pH 7.4) was 10- to 30 fold, the Cmax ([12]; 25 mg/kg) was 12 µM and the half-life ([2]; pH 7.4, Microsome T1/2) was 8.7 to 13 min. For the same compound, the half-life ([2]; pH 7.4, T1/2(min)) was 13 min, the half-life ([2]; pH 7.4, T1/2 + ritonavir (min)) was 144 min and the IC50 [3] was 68 nM. For the same compound, the IC50 ([3]; Vesicular stomatitis virus) was 130 nM, the “C@12 hr” value [13] was 1.7 µM and the “Cl_obs” value [13] was 12.3 mL/min/kg. For the same compound, the “Decrease of the clearance by co-administration of ritonavir” value ([13]; po) was ~4 fold, the “Increase of the AUC by co-administration of ritonavir” value ([13]; po) was ~4 fold and the “C@12 hr” value ([13]; po, 25 mg/kg) was 0.2 µM. The “Cl_obs” value ([13]; po, 25 mg/kg) was 49.0 mL/min/kg, the Cmax ([13]; po, 25 mg/kg) was 7.2 µM and the “T1/2” value ([13]; po, 25 mg/kg) was 138 min. The Kinetic solubility [16] was 93 µM and the “Sol” value [16] was >100 mM.

In the case of `[2H]C([2H])(c1cc(Cl)ccc1N)N1CCN(C(=O)CNC(=O)C2CC23CCC(F)(F)CC3)CC1` (single isomer, unassigned; (-)) [(−)-1413], the “HLM T½” value [17] is reported as 16 min, the “Increase of stability in mouse liver microsomes by ritonavir” value is reported as 10- to 30 fold and the “MLM T½” value (mouse, microsomes) is reported as 3 min. The “MLM, T½ (min) (ritonavir 3 μM)” value (mouse, microsomes) was 91 min, the “C@12 hr” value [13] was 2.0 µM and the “Cl_obs” value [13] was 15.5 mL/min/kg. For the same compound, the “AUClast” value ([13]; po, 50 mg/kg) was 120.9 µM·h, the “T1/2” value ([13]; po, 50 mg/kg) was 192 min and the “Tmax” value ([13]; po, 50 mg/kg) was 102 min. The “Mouse PPB (% bound)” value [18] was 87.9% and the Kinetic solubility [16] was 78 µM.

In the case of `COC(=O)c1ccc(COc2ccccc2CN2CCN(C(=O)CNC(=O)CC34CC5CC(CC(C5)C3)C4)CC2)cc1` [Compound 3.47, reference compound], the “Potency against EboV GP-dependent infection” value [5] is listed as “increased potency” and the “Concentration required to reduce cell viability by 50%” value [4] is listed as “exceeded 10 μM”.

With `Nc1ccc(Cl)cc1CN1CCN(C(=O)CNC(=O)CC2CCC(F)(F)CC2)CC1` [Compound 1343, N-(2-(4-(2-Amino-5-chlorobenzyl)piperazin-1-yl)-2-oxoethyl)-2-(4,4-difluorocyclohexyl)acetamide] the solubility kinetic [1] was > 100 µM, the half-life ([2]; pH 7.4, MLM T½ (min)) was 9 min and the half-life ([2]; pH 7.4, T1/2(min)) was 8.7 min. The IC50 ([3]; Vesicular stomatitis virus) was 320 nM, the “Mouse PPB (% bound)” value [18] was 86.9% and the “Sol” value [16] was >100 mM.

With `CS(=O)(=O)c1ccc(CNc2ccc(Cl)cc2CN2CCN(C(=O)CNC(=O)CC3CCC(F)(F)CC3)CC2)cc1` [Compound 1477] the EC50 [10] was 52 nM, the fraction unbound ([11]; m-plasma protein binding) was 0.001 and the “m-μsome T1/2 (with 3 μM of Ritonavir)” value (mouse, microsomes, pH 7.4) was 90 min. For the same compound, the “Concentration required to reduce cell viability by 50%” value [4] was “exceeded 10 μM”, the EC50 [14] was 12 nM and the EC50 [15] was 33 nM.

In the case of `CS(=O)(=O)c1ccc(COc2ccc(Cl)cc2CN2CCN(C(=O)CNC(=O)C3CC34CCC(F)(F)CC4)CC2)cc1` (single isomer, unassigned; (-)) [(−)-1476], the “MLM, T½ (min) (ritonavir 3 μM)” value (mouse, microsomes) is reported as >120 min, the “C@12 hr” value [13] is reported as 4.7 µM and the “Cl_obs” value [13] is reported as 11.9 mL/min/kg. The “Plasma concentration after 12 hours relative to in vitro IC50 against rVSV EBOV infection in 50% human serum” value [13] was 50 fold, the “AUClast” value ([13]; po, 50 mg/kg) was 116.4 µM·h and the Cmax ([13]; po, 50 mg/kg) was 10.4 µM. The “T1/2” value ([13]; po, 50 mg/kg) was 132 min, the “Tmax” value ([13]; po, 50 mg/kg) was 240 min and the “Mouse PPB (% bound)” value [18] was 97.6%. For the same compound, the Kinetic solubility [16] was 10 µM.

With `[2H]C([2H])(c1cc(Cl)ccc1NCc1ccc(S(C)(=O)=O)cc1)N1CCN(C(=O)CNC(=O)C2CC23CCC(F)(F)CC3)CC1` (single isomer, unassigned; (-)) [(−)-1503] the “HLM T½” value [17] was 1 min, the “MLM T½” value (mouse, microsomes) was 2 min and the “MLM, T½ (min) (ritonavir 3 μM)” value (mouse, microsomes) was 87 min. The “C@12 hr” value [13] was 5.7 µM, the “Cl_obs” value [13] was 12.5 mL/min/kg and the “Plasma concentration after 12 hours relative to in vitro IC50 against rVSV EBOV infection in 50% human serum” value [13] was 50 fold. For the same compound, the “AUClast” value ([13]; po, 50 mg/kg) was 107.5 µM·h, the “T1/2” value ([13]; po, 50 mg/kg) was 102 min and the “Tmax” value ([13]; po, 50 mg/kg) was 438 min. For the same compound, the “Mouse PPB (% bound)” value [18] was 99.8% and the Kinetic solubility [16] was 4 µM.
